Source: patent publication US8193213B2, “Spermicidal and/or antifungal composition and methods of using the same” (priority 2003, dated 2012)
Marks after values point to notes of the source that are not given here.

Key:
[1] = tested on: Aspergillus fumigatus; assay: Antifungal susceptibility testing (NCCLS, MIC/MFC) against A. fumigatus; assay type: cell-based; parameters: Lowest [Active]: unit not given here; conditions: for CFU for MFC at 100 / CFU for MFC at 200 / CFU for MFC at 300 / Lowest [Active]: A. fumigatus (48 hours); for CFU for MFC at 100: concentration 100; for CFU for MFC at 200: concentration 200; for CFU for MFC at 300: concentration 300; for Lowest [Active]: concentrations 300, 200, 100, unit not given, N/A = no active concentration; for Lowest MIC / Lowest MFC: A. fumigatus; for Lowest MIC: lowest concentration that appears to have no growth; for Lowest MFC: lowest concentration that kills >= 98% of the cells in the well
Description: (§1) Antifungal susceptibility testing was performed following the NCCLS guidelines with minor modifications. Briefly, a suspension of Candida albicans cells was prepared from pure cultures grown overnight on yeast-malt extract (YM) agar at 35° C. Several small colonies were removed from a YM agar plate and transferred to 5 ml of 0.85% saline. The cells were suspended by 15 seconds of vortexing and the cell density of the resulting suspension was determined using a spectrophotometer. The cell density was adjusted by addition of 0.85% saline until the transmittance matched that of a 0.5 McFarland standard when measured at a wavelength of 530 nm. An aliquot of this suspension was diluted 1:1000 in RPMI-MOPS to yield a working suspension. A similar suspension of Aspergillus fumigatus spores was obtained by using spores stored at […] in 0.85% saline. These spores were diluted in 0.85% saline to match the McFarland standard transmittance. This suspension was then further diluted 1:50 in RPMI-MOPS to produce the working inoculum suspension.
(§2) Dilution series of the test compounds were made in RPMI-MOPS containing 2% DMSO. An aliquot of each dilution was added in duplicate to the wells of a sterile 96-well, flat bottom microtiter plate. Then, an aliquot of either the C. albicans cell suspension or the A. fumigatus spore suspension were added to each well for a final volume of 200 μl. The plates were then incubated at […]. […] A similar determination was made for the A. fumigatus plates after 48 hours. […] The numbers of colony forming units (CFU) were counted and these values used to calculate the percent survival of cells or spores in inocula relative to the number of CFUs in the working inoculum suspension. The minimum fungicidal concentration (MFC) was the lowest concentration of test compound with a percent survival of less than 2%.

[2] = tested on: Candida albicans; assay: Antifungal susceptibility testing (NCCLS, MIC/MFC) against C. albicans; assay type: cell-based; parameters: Lowest [Active]: unit not given here; conditions: for CFU for MFC at 200: concentration 200; for CFU for MFC at 300: concentration 300; for Lowest [Active]: concentrations 300, 200, 100, unit not given, N/A = no active concentration; for Lowest MIC: lowest concentration that appears to have no growth; for Lowest MFC: lowest concentration that kills >= 98% of the cells in the well
Description: as §1, §2

[3] = tested on: adult male Swiss mice; assay: Antispermatogenic screen: single gavage dose to male mice, testes weight and Spermatogenic Index at 72 h; assay type: in vivo; conditions: Table 2, day 3 (72 h), vehicle 1% Tween20 in water
Description: The compounds of the invention were tested in mice for their effects on spermatogenesis three days after a single oral dose by the procedure described in Cook et al (1995) below. Compounds active in this test have been shown also to be anti-fertility compounds.
Compounds were screened for antispermatogenic activity by dosing male mice on day 1 with a gavage dose of control vehicle, positive control (compound 1) or compound of the invention. At 72 h after dosing, animals were killed and the testes were excised, trimmed of fat, and weighed. One testis was examined histologically and rated for spermatogenic potential using the Spermatogenic Index (J. M. Whitsett, P. F. Noden, J. Cherry and A. D. Lawton, J. Reprod. Fertil., 72, 277 (1984), which is a semiquantitative estimate of the sperm producing ability of the testes The index is based on histological appearance of the spermatogenic cells in the seminiferous tubules. A scale of 1 to 6 is used with 5 to 6 being the normal status. A second assessment was based on the weight of the testes.
Tables 1 and 2 show pertinent biological results in terms of the change in testes weight (TW) and spermatogenic index (SI) relative to a control containing only the administration vehicle, but no indenopyridine. In Tables 1 and 2, R^3 and R^4 refer to structures Ib, where R^3 is in the para position; R^1 is ethyl; R^2 is methyl; and R^5 is hydrogen.

Q: `CCc1ccc2c(c1)[C@@H](c1ccc(C(=O)OC)cc1)[C@@H]1CCN(CC)C[C@H]21.Cl` (racemic) [Compound 4587-064] was tested. Which “CFU for MFC at 100” value [1] did it give?
A: Cidal (Cidal = >98% killed)

Q: And the “CFU for MFC at 200” value [1]?
A: Cidal (Cidal = >98% killed)

Q: What about the “CFU for MFC at 300” value [1] of the same molecule?
A: Cidal (Cidal = >98% killed)

Q: What about the “Lowest [Active]” value [1] of the same molecule?
A: 100

Q: And the “Lowest MIC” value [1]?
A: 50 µg/mL

Q: What about the “Lowest MFC” value [1] of the same molecule?
A: 75 µg/mL

Q: What about the “CFU for MFC at 100” value ([2]; C. albicans (19 hours), concentration 100) of the same molecule?
A: Static (Static = well looked clear, but <98% killed)

Q: What about the “CFU for MFC at 200” value ([2]; C. albicans (19 hours)) of the same molecule?
A: Cidal (Cidal = >98% killed)

Q: And the “CFU for MFC at 300” value ([2]; C. albicans (19 hours))?
A: Cidal (Cidal = >98% killed)

Q: And the “Lowest [Active]” value ([2]; C. albicans (19 hours))?
A: 100

Q: And the “Lowest MIC” value ([2]; C. albicans)?
A: 100 µg/mL

Q: What about the “Lowest MFC” value ([2]; C. albicans) of the same molecule?
A: 100 µg/mL

Q: `CCN1CC[C@@H]2[C@@H](c3ccc(C(=O)OC)cc3)c3cc(C)ccc3[C@@H]2C1.Cl` (single isomer, unassigned) [3 (l), (1)-Enantiomer of (4aRS,5SR,9bRS)-2-Ethyl-2,3,4,4a,5,9b-hexahydro-7-methyl-5-(4-carbomethoxyphenyl)-1H-indeno[1,2-c]pyridine Hydrochloride] was tested. Which “SI change (%) (Spermatogenic Index, % change from vehicle control)” value ([3]; 1 mg/kg single gavage dose) did it give?
A: 3%

Q: What about the “TW change (%) (testes weight, % change from vehicle control)” value (“TW change (%)” for short) ([3]; 1 mg/kg single gavage dose) of the same molecule?
A: 8%

Q: And the “SI change (%) (Spermatogenic Index, % change from vehicle control)” value ([3]; 3 mg/kg single gavage dose)?
A: −2%

Q: And the “TW change (%)” value ([3]; 3 mg/kg single gavage dose)?
A: −12%

Q: And the “SI change (%) (Spermatogenic Index, % change from vehicle control)” value ([3]; 10 mg/kg single gavage dose)?
A: −33%*

Q: What about the “TW change (%)” value ([3]; 10 mg/kg single gavage dose) of the same molecule?
A: −13%

Q: What about the “SI change (%) (Spermatogenic Index, % change from vehicle control)” value ([3]; 30 mg/kg single gavage dose) of the same molecule?
A: −64%*

Q: What about the “TW change (%)” value ([3]; 30 mg/kg single gavage dose) of the same molecule?
A: −30%*

Q: How did the “SI change (%) (Spermatogenic Index, % change from vehicle control)” value ([3]; 0.3 mg/kg single gavage dose) turn out when `CCN1CCC2C(C1)c1cc(I)c(C)cc1C2c1ccc(C(=O)OC)cc1` (single isomer, unassigned) [18 (l)] was run?
A: −34%*

Q: What about the “TW change (%)” value ([3]; 0.3 mg/kg single gavage dose) of the same molecule?
A: −11%*

Q: What about the “SI change (%) (Spermatogenic Index, % change from vehicle control)” value ([3]; 1 mg/kg single gavage dose) of the same molecule?
A: −66%*

Q: What about the “TW change (%)” value ([3]; 1 mg/kg single gavage dose) of the same molecule?
A: −21%*

Q: And the “SI change (%) (Spermatogenic Index, % change from vehicle control)” value ([3]; 3 mg/kg single gavage dose)?
A: −71%*

Q: What about the “TW change (%)” value ([3]; 3 mg/kg single gavage dose) of the same molecule?
A: −27%*

Q: And the “SI change (%) (Spermatogenic Index, % change from vehicle control)” value ([3]; 10 mg/kg single gavage dose)?
A: −72%*

Q: And the “TW change (%)” value ([3]; 10 mg/kg single gavage dose)?
A: −31%*

Q: Which results are given for `C[C@@H]1[C@H](O)[C@@H](C)/C=C/C=C/C=C/C=C/C=C/C=C/C=C/[C@H](O[C@@H]2O[C@H](C)[C@@H](O)[C@H](N)[C@@H]2O)C[C@@H]2O[C@](O)(C[C@@H](O)C[C@@H](O)[C@H](O)CC[C@@H](O)C[C@@H](O)CC(=O)O[C@H]1C)C[C@H](O)[C@H]2C(=O)O` [AMP B, reference compound]?
A: Lowest MIC [1]: 2 µg/mL; Lowest MIC ([2]; C. albicans): 0.5 µg/mL

Q: For `CCN1CCC2C(C1)c1ccc(C)cc1C2c1ccc(C)cc1.Cl` (stereo not drawn) [Compound 4587-002d], which “Lowest MIC” value [1] is on record?
A: 50 µg/mL

Q: What about the “Lowest MFC” value [1] of the same molecule?
A: 50 µg/mL

Q: And the “Lowest MFC (class word)” value ([2]; C. albicans)?
A: fungistatic (Fungistatic = compound with an MIC, but <98% of cells killed)

Q: What about the “Lowest MIC” value ([2]; C. albicans) of the same molecule?
A: 50 µg/mL

Q: `CCN1CCC2C(C1)c1ccc(C)cc1C2c1ccc(C)cc1.Cl` (stereo not drawn) [Compound 4587-002l] was tested. Which “Lowest MIC” value [1] did it give?
A: 50 µg/mL

Q: What about the “Lowest MFC” value [1] of the same molecule?
A: 75 µg/mL

Q: And the “Lowest MIC” value ([2]; C. albicans)?
A: 75 µg/mL

Q: What about the “Lowest MFC” value ([2]; C. albicans) of the same molecule?
A: 100 µg/mL

Q: `CCN1CCC2C(C1)c1ccc(C)cc1C2c1ccc(C)cc1.Cl` (stereo not drawn) [Compound 4587-003] was tested. Which “Lowest MIC” value [1] did it give?
A: 25 µg/mL

Q: And the “Lowest MFC” value [1]?
A: 25 µg/mL

Q: What about the “Lowest MIC” value ([2]; C. albicans) of the same molecule?
A: 50 µg/mL

Q: What about the “Lowest MFC” value ([2]; C. albicans) of the same molecule?
A: 75 µg/mL

Q: For `CCN1CCC(C(c2ccc(C)cc2)c2cccc(C)c2)CC1.Cl` (stereo not drawn) [Compound 4587-006], which “CFU for MFC at 300” value ([2]; C. albicans (19 hours)) is on record?
A: Static (Static = well looked clear, but <98% killed)

Q: What about the “Lowest [Active]” value ([2]; C. albicans (19 hours)) of the same molecule?
A: 300

Q: Which “CFU for MFC at 100” value [1] does the source give for `CCN1CCC2C(C1)c1ccc(C)cc1C2c1ccc(C(=O)OC)cc1.Cl` (stereo not drawn) [Compound 4587-056l] here?
A: Cidal (Cidal = >98% killed)

Q: What about the “CFU for MFC at 200” value [1] of the same molecule?
A: Cidal (Cidal = >98% killed)

Q: What about the “CFU for MFC at 300” value [1] of the same molecule?
A: Cidal (Cidal = >98% killed)

Q: And the “Lowest [Active]” value [1]?
A: 100

Q: And the “CFU for MFC at 200” value ([2]; C. albicans (19 hours))?
A: Cidal (Cidal = >98% killed)

Q: And the “CFU for MFC at 300” value ([2]; C. albicans (19 hours))?
A: Cidal (Cidal = >98% killed)

Q: What about the “Lowest [Active]” value ([2]; C. albicans (19 hours)) of the same molecule?
A: 200
